{"source": "patent US4164571A", "about": "“Medicament which antagonizes the action of gastrin and related polypeptides” (Commissariat a l'Energie Atomique, priority 1976, dated 1979)", "key": {"[1]": {"system": "stimulated secretion of gastric juice", "assay": "stimulated gastric acid secretion in anaesthetised perfused rats (Ghosh and Schild, modified by Lai), intravenous injection", "assay_type": "in vivo, rat", "settings": "for % inhibition of gastrin I stimulated acid secretion / % inhibition of pentagastrin stimulated acid secretion: i.v.", "experimental": "A first series of experiments was carried out on male Wistar rats weighing 300 to 325 g. The procedure used was that of Ghosh and Schild, modified by Lai. The rats fasted for the 18 hours preceding the test. On the day of the test the rats were anaesthesized with urethane by the intraperitoneal route at a rate of 1.20 g of urethane per kilogramme. The rectal temperature was maintained at 34°±1° C. by means of an anal probe connected to a thermometer which electronically controlled the lighting up of a 100 Watt lamp positioned above each rat. An oesophageal probe (polyethylene catheter) was introduced up to the oesophagus--rumen junction of the rat and another catheter was introduced into the pyloric opening via the duodenum. The stomach was perfused with a solution of physiological serum introduced by means of the oesophageal tube at a constant speed of 1 ml/mn and was collected every ten minutes by the pyloroduodenal probe.\nThe rats prepared in this way were left to rest for a period of at least 45 minutes. The perfusate sampled every 10 minutes was then determined by means of a 0.01 N soda solution at pH 8.45, corresponding to a phenolphthalein colour change or at pH 7.4 with an automatic titration apparatus at constant pH.\nAfter determining the basal acid secretion of the gastric juice on at least four consecutive samples a dose of gastrin was intravenously administered to the rats in the vein of the penis and subsequently the response to this stimulation was recorded until the secretion returned to the basal level over a period of at least twice 10 minutes. […] The results are expressed in microequivalents of hydrochloric acid per 40 minutes and are calculated as follows: either as the number of secreted microequivalents after stimulation less the number of microequivalents secreted in the 40 minutes prior to the injection of the dose, or as an acid peak, i.e., taking the average of the two consecutive maximum responses for each dose less the average value for the two basal values preceding the injection.\nThe transformation into double inverse makes it possible by analogy with enzymatic reactions to conclude whether the inhibition is of the competitive type or not."}, "[2]": {"system": "stimulated secretion of gastric juice", "assay": "gastric acid secretion in rats under continuous intravenous perfusion", "assay_type": "in vivo, rat", "experimental": "In a second series of experiments an intravenous perfusion of an isotonic solution of […] sodium chloride was administered at a rate of 2.4 ml/h to rats prepared in the manner indicated hereinbefore according to the procedure of Ghosh and Schild, modified by Lai. This perfusion was administered to the vein of the penis.\nThe rats prepared in this manner were left at rest for at least 45 minutes, then the acidity was determined as hereinbefore on the gastric perfusate sampled every 10 minutes. […] At the end of the first hour a dose of gastrin I was added to the perfusion. The results obtained are given in FIG. 5a showing the variations of the gastric secretion as a function of time."}, "mice": {"system": "mice", "settings": "for number of death cases: group of ten mice", "description": "All the dead or surviving animals are autopsied, the stomach and the small intestine are examined for heamorrhages or ulcers."}}, "note": "Read-outs that look alike come from different tables or passages of the source.", "data": [{"compound": "orthonitrophenyl sulphenylated gastrin I [gastrin I-NPS]", "values": [{"measurement": "type of inhibition of gastrin I response (double inverse representation)", "setting": "[1]; 100 or 200 ng gastrin I-NPS with each dose of gastrin I", "value": "inhibition is competitive"}, {"measurement": "% inhibition of gastrin I stimulated acid secretion", "setting": "[1]; ratio gastrin I-NPS/gastrin I 1/1, 50 ng gastrin NPS with 50 ng gastrin I", "value": 100, "unit": "%"}, {"measurement": "% inhibition of gastrin I stimulated acid secretion", "setting": "[1]; ratio gastrin I-NPS/gastrin I 1/2, 50 ng gastrin NPS with 100 ng gastrin I", "value": 75, "unit": "%"}, {"measurement": "% inhibition of gastrin I stimulated acid secretion", "setting": "[1]; ratio gastrin I-NPS/gastrin I 1/3, 50 ng gastrin NPS with 150 ng gastrin I", "value": 65, "unit": "%"}, {"measurement": "% inhibition of gastrin I stimulated acid secretion", "setting": "[1]; ratio gastrin I-NPS/gastrin I 1/4, 50 ng gastrin NPS with 200 ng gastrin I", "value": "< 35", "unit": "%"}, {"measurement": "time until stimulated secretion plateau after introduction of gastrin I", "setting": "[2]; 100 ng/h gastrin I-NPS with 200 ng/h gastrin I, plateau at a lower level", "value": 30, "unit": "min"}, {"measurement": "time until stimulated secretion plateau after introduction of gastrin I", "setting": "[2]; 100 ng/h gastrin I-NPS with 400 ng/h gastrin I, plateau reaches the level of 100 ng/h gastrin I", "value": 40, "unit": "min"}, {"measurement": "secretory response to the substance alone", "setting": "[2]; 100 ng/h in intravenous perfusion", "value": "causes no secretory response"}]}, {"compound": "Boc-Gly-Trp-(NPS)-Met-Aspe-Phe-NH2 [pentagastrin-NPS]", "values": [{"measurement": "inhibition of pentagastrin action", "setting": "[1]; pentagastrin-NPS associated with pentagastrin", "value": "inhibits the pentagastrin action"}, {"measurement": "% inhibition of pentagastrin stimulated acid secretion", "setting": "[1]; ratio pentagastrin-NPS/pentagastrin 1/1, 50 ng pentagastrin-NPS with 50 ng pentagastrin", "value": 100, "unit": "%"}, {"measurement": "% inhibition of pentagastrin stimulated acid secretion", "setting": "[1]; ratio pentagastrin-NPS/pentagastrin 1/2, 50 ng pentagastrin-NPS with 100 ng pentagastrin", "value": 100, "unit": "%"}, {"measurement": "% inhibition of pentagastrin stimulated acid secretion", "setting": "[1]; ratio pentagastrin-NPS/pentagastrin 1/3, 50 ng pentagastrin-NPS with 150 ng pentagastrin", "value": 75, "unit": "%"}, {"measurement": "% inhibition of pentagastrin stimulated acid secretion", "setting": "[1]; ratio pentagastrin-NPS/pentagastrin 1/4, 50 ng pentagastrin-NPS with 200 ng pentagastrin", "value": "< 20", "unit": "%"}, {"measurement": "number of death cases", "setting": "mice; 1280 μg/kg i.p., 24 h", "value": 1}, {"measurement": "petechiae at autopsy", "setting": "mice; 2560 μg/kg i.p.", "value": "a few petechiae are observed"}, {"measurement": "number of death cases", "setting": "mice; 2560 μg/kg i.p., 6 h", "value": 1}, {"measurement": "number of death cases", "setting": "mice; 2560 μg/kg i.p., 24 h", "value": 1}, {"measurement": "number of death cases", "setting": "mice; 2560 μg/kg i.p., 48 h", "value": 2}, {"measurement": "digestive hemorrhage at autopsy", "setting": "mice; 160 to 2560 μg/kg i.p.", "value": "does not lead to any digestive hemorrhage"}, {"measurement": "doses leading to no modifications (petechiae) of the stomach and of the intestine", "setting": "mice; i.p.", "value": "under 2,5 mg/kg"}]}, {"compound": "CSCC[C@H](NC(=O)[C@H](Cc1c[nH]c2ccccc12)NC(=O)CCNC(=O)OC(C)(C)C)C(=O)N[C@@H](CC(=O)O)C(=O)N[C@@H](Cc1ccccc1)C(N)=O", "note": "[pentagastrin, Boc-Gly-Trp-Met-Asp-phe-NH2, reference compound]", "values": [{"measurement": "number of death cases", "setting": "mice; 1280 μg/kg i.p., 2 h", "value": 1}, {"measurement": "number of death cases", "setting": "mice; 1280 μg/kg i.p., 6 h", "value": 1}, {"measurement": "number of death cases", "setting": "mice; 2560 μg/kg i.p., 2 h", "value": 2}, {"measurement": "number of death cases", "setting": "mice; 2560 μg/kg i.p., 48 h", "value": 1}, {"measurement": "dose at which digestive hemorrhages are observed", "setting": "mice; i.p., importance increases with the dose", "value": "≥ 0.32", "unit": "mg/kg"}, {"measurement": "LD 50", "setting": "mice; i.p., logit-log paper", "value": "higher than 3.2 mg/kg"}]}]}
